# System: M-07e cells
# Experiment: M-07e cellular assay (SCF-mediated cell proliferation)
# Format: cell-based
# Conditions: Homo sapiens, 72 hours, CellTiter Glo
# Procedure, shortened: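 EC50 values reflect inhibition of SCF-driven proliferation, with SCF at EC90 and a 72 h compound exposure, measured as CellTiter Glo luminescence. Growth is scaled between no-SCF (0%) and untreated (100%) wells.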
row,Structure (SMILES),EC50 [µM]
1,Cc1sc(-c2noc(C3CN(C(=O)OC(C)(C)C)C3)n2)cc1NC(=O)c1cnn2ccc(N3CC4(COC4)C3)cc12 [Example 281-114],> 1
2,Cc1ccc(-c2noc([C@H]3C[C@@H]3F)n2)cc1NC(=O)c1cnn2cc(-c3cn(C45CC(C4)C5)nn3)ccc12 [Example 123],< 0.1
3,Cc1ccc(-c2noc([C@H]3C[C@@H](OC(C)C)C3)n2)cc1NC(=O)c1cnn2ccc(N3CC4(CN(CC(F)(F)F)C4)C3)cc12 [Example 246],< 0.1
4,Cc1cc(F)c(-c2noc([C@H]3C[C@@H]3F)n2)cc1NC(=O)c1cnn2ccc(N3CC4(C3)CC(O)(C(F)F)C4)cc12 [Example 281-18],< 0.1
5,CC(=O)N1CCC(c2nc(-c3cnc(C)c(NC(=O)c4cnn5ccc(N6CC7(C6)CC(O)(C(F)F)C7)cc45)c3)no2)CC1 [Example 281-72],> 1
6,Cc1ncc(-c2noc([C@H]3C[C@@H](OC(F)(F)F)C3)n2)cc1NC(=O)c1cnn2cc(-c3cn(C(F)F)nn3)ccc12 [Example 132-6],< 0.1
7,Cc1ncc(-c2ccn3ncc(C(=O)Nc4cc(-c5noc([C@H]6C[C@@H]6F)n5)ccc4C)c3c2)cn1 [Example 163],< 0.1
8,Cc1ncc(-c2ncc(OC(F)F)cn2)cc1NC(=O)c1cnc(-c2ccc3c(c2)CC(=O)N3)o1 [Example 362],0.1 to 1
9,Cc1ccc(-c2noc([C@H]3C[C@@H]3F)n2)cc1NC(=O)c1cccnc1 [Example 3],> 1
10,Cc1ccc(-c2noc([C@H]3C[C@@H]3F)n2)cc1NC(=O)c1cnn2ccc(C3CC4(C3)CC(F)(F)C4)cc12 [Example 167-1],< 0.1
11,Cc1ccc(-c2noc([C@H]3C[C@@H]3F)n2)cc1NC(=O)c1cnn2cc(C3CC3)ccc12 [Example 56],0.1 to 1
12,Cc1ccc(-c2noc([C@H]3C[C@@H](OC(F)(F)F)C3)n2)cc1NC(=O)c1cnn2ccc(N3CC4(CN(C(=O)OC(C)(C)C)C4)C3)cc12 [Example 258],0.1 to 1
13,O=C(Nc1cc(-c2noc([C@H]3C[C@@H]3F)n2)ccc1Cl)c1cnn2ccc(N3CC4(COC4)C3)cc12 [Example 262],< 0.1
14,Cc1ccc(-c2noc(N3CC(F)(F)C3)n2)cc1NC(=O)c1cnn2ccc(N3CC4(C3)CC(O)(C(F)F)C4)cc12 [Example 281-98],< 0.1
15,Cc1ccc(-c2noc([C@H]3C[C@@H]3F)n2)cc1NC(=O)c1cnn2ccc(NC(=O)c3ccccc3)cc12 [Example 93],0.1 to 1
16,Cc1ccc(-c2noc([C@]3(C)C[C@H](OC(F)F)C3)n2)cc1NC(=O)c1cnn2ccc(N3CC4(COC4)C3)cc12 [Example 281],< 0.1
17,O=C(Nc1cc(-c2noc(N3CC(O)(C(F)(F)F)C3)n2)ccc1Cl)c1cnn2ccc(N3CC4(C3)CC(O)(C(F)F)C4)cc12 [Example 281-125],< 0.1
18,Cc1ccc(-c2noc([C@H]3C[C@@H]3F)n2)cc1NC(=O)c1cnc(N2CC(C(=O)OC(C)(C)C)C2)s1 [Example 98-3],> 1
19,Cc1ccc(-c2noc([C@H]3C[C@@H]3F)n2)cc1NC(=O)c1cnn2ccc(-c3cnn(CCO)c3)cc12 [Example 138],< 0.1
20,Cc1ccc(-c2noc(C3CC4(C3)CN(C(=O)[C@H]3C[C@@H]3F)C4)n2)cc1NC(=O)c1cnn2ccc(N3CC4(COC4)C3)cc12 [Example 281-106],0.1 to 1
21,Cc1ccc(-c2noc([C@H]3C[C@@H]3F)n2)cc1NC(=O)c1cnn2ccc(N3CCNC[C@@H]3C)cc12 [Example 196],< 0.1
22,Cc1ncc(-c2noc(C3CN(C(=O)C4(F)CC4)C3)n2)cc1NC(=O)c1cnn2ccc(N3CC4(C3)CC(O)(C(F)F)C4)cc12 [Example 281-84],0.1 to 1
23,Cc1ccc(-c2noc([C@H]3C[C@@H]3F)n2)cc1NC(=O)c1cnc(-c2cccc(N)n2)o1 [Example 305],> 1
24,Cc1ccc(-c2noc([C@H]3C[C@@H]3F)n2)cc1NC(=O)c1cnn2ccc(N3CCC4(COC4)C3)cc12 [Example 173],< 0.1
25,Cc1ccc(-c2noc([C@H]3C[C@@H]3F)n2)cc1NC(=O)c1cnc(-c2ccc3nccn3c2)o1 [Example 308-18],0.1 to 1
26,Cc1ccc(-c2noc([C@H]3C[C@@H]3F)n2)cc1NC(=O)c1cnc(-c2ccncc2)o1 [Example 286],0.1 to 1

# Molecular target: Recombinant human c-KIT kinase (Homo sapiens (Human), UniProt P10721)
# Experiment: c-KIT kinase chemiluminescence assay (ADP-Glo)
# Format: biochemical
# Conditions: ATP 50 μM
# Procedure, shortened: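 Recombinant human c-KIT preincubated 30 min at RT in 40 mM Tris pH 7.5, 20 mM MgCl2, 0.1 mg/mL BSA, 50 μM DTT, then reacted 2 h at RT with ATP and polyEY substrate. ADP-Glo luminescence readout; activity normalized to high/low controls, IC50 and Hill coefficient from inhibitor-versus-normalized-response fit.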
# Recombinant human c-KIT kinase, sequence (P10721 26-976): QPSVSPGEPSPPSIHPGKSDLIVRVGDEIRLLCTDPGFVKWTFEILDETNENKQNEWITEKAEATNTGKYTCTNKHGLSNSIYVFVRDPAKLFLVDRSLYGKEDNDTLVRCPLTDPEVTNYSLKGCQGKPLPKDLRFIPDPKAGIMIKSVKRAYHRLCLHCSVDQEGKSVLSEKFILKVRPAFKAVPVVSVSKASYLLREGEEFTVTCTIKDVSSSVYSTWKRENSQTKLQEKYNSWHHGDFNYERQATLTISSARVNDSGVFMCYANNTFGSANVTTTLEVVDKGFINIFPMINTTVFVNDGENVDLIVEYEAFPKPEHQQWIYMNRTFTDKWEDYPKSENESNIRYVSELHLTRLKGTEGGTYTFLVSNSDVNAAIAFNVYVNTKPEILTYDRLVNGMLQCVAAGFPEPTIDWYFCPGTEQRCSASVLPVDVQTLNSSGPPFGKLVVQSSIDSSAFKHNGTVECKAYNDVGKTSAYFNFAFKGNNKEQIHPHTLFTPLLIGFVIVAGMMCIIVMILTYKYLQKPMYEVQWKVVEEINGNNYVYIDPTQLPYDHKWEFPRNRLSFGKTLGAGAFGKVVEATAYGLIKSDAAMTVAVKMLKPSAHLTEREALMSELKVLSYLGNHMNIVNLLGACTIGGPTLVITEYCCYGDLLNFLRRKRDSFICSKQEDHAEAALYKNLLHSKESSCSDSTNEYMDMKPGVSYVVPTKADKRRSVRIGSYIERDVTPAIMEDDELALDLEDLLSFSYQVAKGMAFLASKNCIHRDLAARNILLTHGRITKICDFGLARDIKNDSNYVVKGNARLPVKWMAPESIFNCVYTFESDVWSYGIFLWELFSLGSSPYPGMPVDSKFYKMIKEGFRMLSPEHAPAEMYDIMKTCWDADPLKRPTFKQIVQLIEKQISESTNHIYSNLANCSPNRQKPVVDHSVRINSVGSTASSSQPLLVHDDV
row,IC50 [µM],Structure (SMILES)
1,> 1,Cc1sc(-c2noc(C3CN(C(=O)OC(C)(C)C)C3)n2)cc1NC(=O)c1cnn2ccc(N3CC4(COC4)C3)cc12 [Example 281-114]
2,0.1 to 1,Cc1ccc(-c2noc([C@H]3C[C@@H]3F)n2)cc1NC(=O)c1cnn2cc(-c3cn(C45CC(C4)C5)nn3)ccc12 [Example 123]
3,0.1 to 1,Cc1ccc(-c2noc([C@H]3C[C@@H](OC(C)C)C3)n2)cc1NC(=O)c1cnn2ccc(N3CC4(CN(CC(F)(F)F)C4)C3)cc12 [Example 246]
4,< 0.1,Cc1cc(F)c(-c2noc([C@H]3C[C@@H]3F)n2)cc1NC(=O)c1cnn2ccc(N3CC4(C3)CC(O)(C(F)F)C4)cc12 [Example 281-18]
5,> 1,CC(=O)N1CCC(c2nc(-c3cnc(C)c(NC(=O)c4cnn5ccc(N6CC7(C6)CC(O)(C(F)F)C7)cc45)c3)no2)CC1 [Example 281-72]
6,0.1 to 1,Cc1ncc(-c2noc([C@H]3C[C@@H](OC(F)(F)F)C3)n2)cc1NC(=O)c1cnn2cc(-c3cn(C(F)F)nn3)ccc12 [Example 132-6]
7,< 0.1,Cc1ncc(-c2ccn3ncc(C(=O)Nc4cc(-c5noc([C@H]6C[C@@H]6F)n5)ccc4C)c3c2)cn1 [Example 163]
8,0.1 to 1,Cc1ncc(-c2ncc(OC(F)F)cn2)cc1NC(=O)c1cnc(-c2ccc3c(c2)CC(=O)N3)o1 [Example 362]
9,> 1,Cc1ccc(-c2noc([C@H]3C[C@@H]3F)n2)cc1NC(=O)c1cccnc1 [Example 3]
10,< 0.1,Cc1ccc(-c2noc([C@H]3C[C@@H]3F)n2)cc1NC(=O)c1cnn2ccc(C3CC4(C3)CC(F)(F)C4)cc12 [Example 167-1]
11,< 0.1,Cc1ccc(-c2noc([C@H]3C[C@@H]3F)n2)cc1NC(=O)c1cnn2cc(C3CC3)ccc12 [Example 56]
12,0.1 to 1,Cc1ccc(-c2noc([C@H]3C[C@@H](OC(F)(F)F)C3)n2)cc1NC(=O)c1cnn2ccc(N3CC4(CN(C(=O)OC(C)(C)C)C4)C3)cc12 [Example 258]
13,< 0.1,O=C(Nc1cc(-c2noc([C@H]3C[C@@H]3F)n2)ccc1Cl)c1cnn2ccc(N3CC4(COC4)C3)cc12 [Example 262]
14,< 0.1,Cc1ccc(-c2noc(N3CC(F)(F)C3)n2)cc1NC(=O)c1cnn2ccc(N3CC4(C3)CC(O)(C(F)F)C4)cc12 [Example 281-98]
15,0.1 to 1,Cc1ccc(-c2noc([C@H]3C[C@@H]3F)n2)cc1NC(=O)c1cnn2ccc(NC(=O)c3ccccc3)cc12 [Example 93]
16,< 0.1,Cc1ccc(-c2noc([C@]3(C)C[C@H](OC(F)F)C3)n2)cc1NC(=O)c1cnn2ccc(N3CC4(COC4)C3)cc12 [Example 281]
17,< 0.1,O=C(Nc1cc(-c2noc(N3CC(O)(C(F)(F)F)C3)n2)ccc1Cl)c1cnn2ccc(N3CC4(C3)CC(O)(C(F)F)C4)cc12 [Example 281-125]
18,> 1,Cc1ccc(-c2noc([C@H]3C[C@@H]3F)n2)cc1NC(=O)c1cnc(N2CC(C(=O)OC(C)(C)C)C2)s1 [Example 98-3]
19,< 0.1,Cc1ccc(-c2noc([C@H]3C[C@@H]3F)n2)cc1NC(=O)c1cnn2ccc(-c3cnn(CCO)c3)cc12 [Example 138]
20,0.1 to 1,Cc1ccc(-c2noc(C3CC4(C3)CN(C(=O)[C@H]3C[C@@H]3F)C4)n2)cc1NC(=O)c1cnn2ccc(N3CC4(COC4)C3)cc12 [Example 281-106]
21,< 0.1,Cc1ccc(-c2noc([C@H]3C[C@@H]3F)n2)cc1NC(=O)c1cnn2ccc(N3CCNC[C@@H]3C)cc12 [Example 196]
22,> 1,Cc1ncc(-c2noc(C3CN(C(=O)C4(F)CC4)C3)n2)cc1NC(=O)c1cnn2ccc(N3CC4(C3)CC(O)(C(F)F)C4)cc12 [Example 281-84]
23,> 1,Cc1ccc(-c2noc([C@H]3C[C@@H]3F)n2)cc1NC(=O)c1cnc(-c2cccc(N)n2)o1 [Example 305]
24,< 0.1,Cc1ccc(-c2noc([C@H]3C[C@@H]3F)n2)cc1NC(=O)c1cnn2ccc(N3CCC4(COC4)C3)cc12 [Example 173]
25,0.1 to 1,Cc1ccc(-c2noc([C@H]3C[C@@H]3F)n2)cc1NC(=O)c1cnc(-c2ccc3nccn3c2)o1 [Example 308-18]
26,> 1,Cc1ccc(-c2noc([C@H]3C[C@@H]3F)n2)cc1NC(=O)c1cnc(-c2ccncc2)o1 [Example 286]
